These results are taken from patent US11980632B2 (priority 2020, dated 2024).

The assay concerns corona-pseudovirus. It counts as cell-based, SARS-CoV-2.

For the compound `CN(C)C(=O)COC(=O)Cc1ccc(OC(=O)c2ccc(NC(=N)N)cc2)cc1` [Camostat], the “infection with the corona-pseudovirus (degree of infection depending on drug concentration)” value is given as “inhibited in a concentration-dependent manner”. Turning to `CCN(CCO)CCCC(C)Nc1ccnc2cc(Cl)ccc12` (stereo not drawn) [hydroxychloroquinine], the “infection with the corona-pseudovirus (degree of infection depending on drug concentration)” value is “inhibited in a concentration-dependent manner”. For heparin the value was “inhibited in a concentration-dependent manner”.
